From PubChem BioAssay AID743336 (Broad Institute, 2014)
Records with an inconclusive call do not appear.

Tested on: C2C12 myotubes + simvastatin, ATP luminescence, 48 h
Assay: rescue of simvastatin myotoxicity in C2C12 – cell-based, differentiated C2C12, luminescence, dry powder, dose response (AID 743336)

`C[C@@H]1CN([C@H](C)CO)C(=O)Cc2cc(NS(=O)(=O)c3ccc(Cl)cc3)ccc2O[C@H]1CN(C)Cc1ccccc1` showed an AC40 of 15.3 µM.

For `C[C@@H]1CN([C@H](C)CO)C(=O)c2cccc(NC(=O)Nc3ccc4c(c3)OCO4)c2O[C@H]1CN(C)Cc1ccc(C(=O)Nc2ccccc2N)cc1`, the AC40 was 14.7 µM.
